Reference: US20100299770A1, “TARGETED CELL DEATH” (priority 2007, published 2010)

Experiments:
[1] = tested on: CNS of adult rats; test: Animal model of CNS demyelination, virus applied to CNS of adult rats, CID intraperitoneal; format: in vivo, rat; conditions: CID via intraperitoneal injection at various times after virus
Experimental: The virus described above, pΔmbpICP9/mEGFP, which contains the inducible caspase 9 sequence was applied to the CNS of adult rats to create an in vivo model of CNS demyelination. Administration of the viral vector allowed effective transfer of genetic information in a variable area of parenchyma based on the rate of administration (convective distribution) and viral titer. […] First, adult Fischer rats were anaesthetized by intraperitoneal injection o f ketamine hydrocholoride (80 mg/kg) and xylazine ([…]) and placed in a sereotactic frame. A midline scalp incision is made. Access to brain parenchyma was accomplished by plaement of a right-sided burr hole through the skull, at various predetermined coordinates depending on the desired location of the lesion. […] The volume of viral vector (e.g., lentivirus) delivered depends upon the infection efficacy as determined herein and the target area size. After injection, the needle is left in place for five minutes and then slowly withdrawn over the next four minutes. The skin was closed with sutures.
For virus administration to the spinal cord an incision was made in the thoracic spine followed by a lamenectomy to expose the spinal cord. A No. 32S-gauge needle was passed into the posterior column at predetermined coordinates.

[2] = tested on: primary oligodendrocyte cultures; test: CID-induced cell death in iCP9 virus-transduced primary oligodendrocyte cultures; format: cell-based, rat; conditions: CID 10 nM; cultures stably expressing iCP9; fluorescent microscope and Methylene Blue viability staining
Experimental: 293T cells were transfected with the pΔmbpICP9/mEGFP vector along with plasmids encoding the gag-pol and RD114 envelope protein using lipofectamine (Invitrogen, Carlsbad, Calif.). Forty-eight hours after transfection viral supernatant were harvested and either directly applied to target cells or snap frozen and stored at -80° C.
To induce timely cell death. Collected virus was used to transduce primary oligodendrocyte cultures that have been established. Cells were cultured and evaluated using fluorescent microscopy for the expression of GFP. The extent of GFP positive cells correlated with the viral infection efficacy. Cell protein isolation was conducted and protein isolates were subjected to Western blot transfer to detect stable expression of the iCP9 protein. The resultant membrane was probed with anti-caspase 9 antibody (R&D Systems Inc. #AF8301). Once the stable expression of iCP9 was confirmed at the protein level wan western mot techniques, the CID was applied to these cells in culture at a 10 nM concentration. […] Cell death was detected by viewing cultures under the fluorescent microscope and by using Methylene Blue (Sigma) viability staining of cells in culture after exposure to the CID. All experiments were run in parallel using the astrocyte-derived U87 cell line as a negative control.

Structure (SMILES): CC[C@H](C(=O)N1CCCC[C@H]1C(=O)O[C@H](CCc1ccc(OC)c(OC)c1)c1cccc(OCC(=O)NCC(CNC(=O)COc2cccc([C@@H](CCc3ccc(OC)c(OC)c3)OC(=O)[C@@H]3CCCCN3C(=O)[C@@H](CC)c3cc(OC)c(OC)c(OC)c3)c2)CN(C)C)c1)c1cc(OC)c(OC)c(OC)c1 [CID, AP20187]
- effect of CID on the infected region of the CNS [1]: apoptosis of the infected region of the CNS
- cell death of infected cells after CID [2]: induced the cellular death of infected cells
